Data on one compound can be found in patent US7863242B2, “Compositions for down-regulation of CCR5 expression and methods of use thereof” (priority 2003, dated 2011).

pIC50: −log10 of the molar value. Where only a bound is given, the exact number is not on record here.

For data set [1], the system named is PBMCs. The following applies: PBMCs with IL-2, day 7.
Data set [2] concerns HIV-1 ADA. Briefly: microbe, parasite or virus in culture. The following applies: Human immunodeficiency virus 1, PBMC, 168 h. As for the experimental part: (§1) Infectivity Assays: The following viruses were used in infection experiments: HIV-1 IIIb, HIV-1 ADA, HIV-1 BaL, HIV-1 JRFL, HIV-1 JRCSF, and HIV-1 SF162. HIV-1 IIIb is a T cell line-adapted lab strain that uses CXCR4 for entry into cells, whereas the rest are isolates that use CCR5. Viruses were obtained from the National Institutes of Health AIDS Research and Reference Reagent Program.
(§2) For infection of PBMCs, fresh donor PBMCs were cultured for 7 days in medium containing IL-2. On day 7, cells were exposed to the virus for 3 h. Nonadsorbed virus was removed by washing cells with PBS three times. Infected cells were cultured in IL-2 medium. Infection of MDMs was carried out as described before (Perno, 1993). Unless otherwise indicated, PBMCs were infected by using an moi of 0.001, and MDM were infected by using an moi of 0.002. Virus growth was monitored in culture supernatants by measuring p24 antigen levels by ELISA (NEN) or by measuring viral RT activity in an RT assay (Willey, 1988).
Antiviral Activity of RAPA in PBMCs: The antiviral activity of RAPA was assayed in PBMCs that had been cultured in the presence of RAPA for 7 days before infection. Cells were infected with the X4 HIV-1 IIIb and the R5 HIV-1 ADA strains. Infected cells were cultured in the presence of RAPA (same concentration as during pretreatment) for 7 additional days, during which time virus replication and cell viability were measured.
To test this hypothesis, donor PBMCs were cultured in IL-2 medium in the absence or presence of RAPA (1, 10, and 100 nM). […] Infected cells were cultured in the presence of RAPA (same concentration as during pretreatment) plus 0.1 nM TAK-779. Virus production was determined 7 days after infection.
Donor PBMCs were cultured in IL-2 medium in the absence or presence of HU (0 and 10 uM). After 7 days, cells were infected with HIV-1 ADA. Infected cells were cultured in the presence of HU (same concentration as during pretreatment) plus different concentration of TAK-779 ranging from 0, 2 and 20 nM). Virus production was determined 7 days after infection.
In order to determine the nature and degree of interaction between RAPA and T20, infectivity assays were performed in the presence of the drugs, alone and in combination. The infectivity assays were performed using PBMCs from healthy donors. PBMCs were cultured for 7 days in the presence of IL-2 (100 U/ml) in the presence or absence of RAPA. On day 7, cells were infected by exposure to the R5 strain HIV-1 ADA (m.o.i of 0.001) for 2 h. Non-adsorbed virus was removed by 3 washes with PBS. Infected cells were then plated in RPMI-10 supplemented with IL-2 (100 U/ml) in the presence of different concentrations of RAPA and T20. Each drug concentration was tested in triplicate. Medium was changed in day 3 after infection and drugs were added at the same concentration as before. On day 7 after infection, virus production was measured in the culture supernatants using a commercial p24 antigen ELISA (NCI, Frederick). Cell viability was determined using the MTT assay (Roche).
The antiviral data was then analyzed for synergy using two different methodologies, the Median Effect principle and Three Dimensional modeling.

Data set [3] has as its system CCR5. Briefly: CCR5 surface expression on CD4 and CD8 T lymphocytes in IL-2 cultured PBMCs (flow cytometry, mAb 182). The class given is cell-based, human. The following applies: days 7 and 10, five donors tested. As to the method:
CCR5 surface expression was measured on PBMCs cultured in the presence of IL-2 for 7-10 days.

In data set [4] the test system is MIP-1α. Put plainly: Extracellular MIP-1α level in PBMC culture supernatants (ELISA). The following applies: day 10, four donors. The class given is cell-based, human.
Method: Levels of the β-chemokines MIP-1α, MIP-1β, and RANTES were measured in culture supernatants by using ELISA kits (R & D Systems).
On day 10, percentage of cells expressing CCR5 and supernatant chemokine content were determined for each donor.
Data set [5] has as its system HIV-1 ADA. Put plainly: HIV-1 ADA replication in monocyte-derived macrophages (RT assay). The class given is cell-based. As for the experimental part:
as §2
(§3) To this end, donor monocytes were cultured for 5 days in the presence of RAPA. On day 5, cells were infected with HIV-1 ADA. Infected cells were cultured in the presence of RAPA for an additional 14 days. Virus production was measured on the culture supernatants on days 7, 10, and 14 after infection. Cell viability was measured by the MTT assay at the end of the experiment.
In the above-described experiment, monocytes had been pretreated with RAPA during the 5-day differentiation period. To control for the possible interference of RAPA with the process of monocyte differentiation, a new infection experiment in which RAPA was not present during the 5-day monocyte differentiation period was designed. To this end, fresh monocytes were cultured for 5 days in the absence of RAPA. On day 5, cells were infected with HIV-1 ADA and then exposed to RAPA.

The subject of data set [6] is MDMs. Put plainly: Cell viability of infected MDMs (MTT assay). It is filed as cell-based, human. The following applies: end of experiment (day 14 after infection). As to the method: as §3
Data set [7] concerns HIV-1 IIIb. Put plainly: HIV-1 IIIb replication in PBMCs (p24 assay). The class given is cell-based. The following applies: Human immunodeficiency virus 1, IIIB, PBMC, 7 days pretreatment, day 7 after infection. As to the method:
as §1, §2
Antiviral Activity of RAPA in PBMCs: The antiviral activity of RAPA was assayed in PBMCs that had been cultured in the presence of RAPA for 7 days before infection. […] Infected cells were cultured in the presence of RAPA (same concentration as during pretreatment) for 7 additional days, during which time virus replication and cell viability were measured.

Where [8] appears, read: read-out: Fa (fractional inhibition).

As for `CO[C@H]1C[C@@H]2CC[C@@H](C)[C@@](O)(O2)C(=O)C(=O)N2CCCC[C@H]2C(=O)O[C@H]([C@H](C)C[C@@H]2CC[C@@H](O)[C@H](OC)C2)CC(=O)[C@H](C)/C=C(\C)[C@@H](O)[C@@H](OC)C(=O)[C@H](C)C[C@H](C)/C=C/C=C/C=C/1C` [RAPA, rapamycin], the “drug concentration at which drug toxicity was observed” value in data set [1] is given as “above 10^3 nM”. Further, the pIC50 in data set [2] (read-out: Dm (dose at 50% inhibition, equivalent to IC50 value)) is 9.51. In data set [2] (setting [8]), the inhibition at 30 pM turned out to be 1.7%, the inhibition at 60 pM amounted to 10.2%, the inhibition at 0.00012 µM came to 11.4% and the inhibition at 0.00025 µM is 54%. Also, in data set [2] (setting [8]), the inhibition at 0.0005 µM amounted to 62% and the inhibition at 0.001 µM turned out to be 88%. The “concentrations that down-regulated CCR5 surface expression on CD4 lymphocytes” value in data set [3] is recorded as not below 1 nM. Further, the “MIP-1α level versus untreated cultures” value in data set [4] was 6-39 fold. In addition, in data set [5] (1 nM RAPA added after infection on day 5, day 14 after infection, one value per donor), the “inhibition of virus replication in already differentiated macrophages” value is approximately 80%. Besides, the inhibition at 0.001 µM in data set [5] (Human immunodeficiency virus 1, Macrophage, 1 nM RAPA added after infection on day 5, day 14 after infection, one value per donor, read-out: inhibition of virus replication in already differentiated macrophages) is approximately 60%. For the same compound, the inhibition at 10 pM in data set [5] (Human immunodeficiency virus 1, Macrophage, RAPA at 0.01 nM, additional experiment, read-out: inhibition of HIV-1 ADA in MDMs) was 64%. The “inhibition of virus production in MDMs” value in data set [5] (RAPA 0.1-100 nM, present during 5-day differentiation, day 14 after infection) is reported as 70-95%. For the same compound, the “concentrations at which cell viability was reduced” value in data set [6] is recorded as not below 10 nM. The inhibition at 0.01 µM in data set [7] (10 nM RAPA) is 13.5%. The inhibition at 0.1 µM in data set [7] (100 nM RAPA) came out at 32%.
